Reference: patent publication US7982030B2, “Synthesis of selenium-derivatized nucleosides, nucleotides, phosphoramidites, triphosphates and nucleic acids” (Georgia State University Research Foundation, Inc., priority 2001, dated 2011)

Target: T1, DNA polymerase (Klenow Fragment) (Escherichia coli, UniProt P00582)
T1 construct: using a DNA polymerase (Klenow Fragment)
Assay: terminal extension on a DNA template: substrate recognition by Klenow
Format: biochemical
Conditions: 3′-terminal extension on a DNA template
Protocol: An alternative approach to label RNAs with selenium is based on the RNA 3′-labeling method (FIG. 9). See ref. 33. After a long RNA is prepared by transcription using ordinary NTPs, α-Se-dNTPs is transferred to its 3′-terminus on a DNA template using a DNA polymerase (Klenow Fragment). […] Experiments also reveal that the number of incorporated dNTPs is dependent on the length of the overhanging nucleotides of the template, and the terminal extension reaction giving full-length product with high yields in the presence of high dNTP concentration. The products may be purified by any one of a variety of methods well known in the art, such as for example, preparative anion exchange HPLC, to single nucleotide resolution for RNA as long as 70 nucleotides. (Ref 34). This terminal transfer approach can be very useful for medium size RNAs (up to 80 nucleotides). An analogous approach can be used to prepare Se-DNAs.

T1 sequence (P00582 324-928): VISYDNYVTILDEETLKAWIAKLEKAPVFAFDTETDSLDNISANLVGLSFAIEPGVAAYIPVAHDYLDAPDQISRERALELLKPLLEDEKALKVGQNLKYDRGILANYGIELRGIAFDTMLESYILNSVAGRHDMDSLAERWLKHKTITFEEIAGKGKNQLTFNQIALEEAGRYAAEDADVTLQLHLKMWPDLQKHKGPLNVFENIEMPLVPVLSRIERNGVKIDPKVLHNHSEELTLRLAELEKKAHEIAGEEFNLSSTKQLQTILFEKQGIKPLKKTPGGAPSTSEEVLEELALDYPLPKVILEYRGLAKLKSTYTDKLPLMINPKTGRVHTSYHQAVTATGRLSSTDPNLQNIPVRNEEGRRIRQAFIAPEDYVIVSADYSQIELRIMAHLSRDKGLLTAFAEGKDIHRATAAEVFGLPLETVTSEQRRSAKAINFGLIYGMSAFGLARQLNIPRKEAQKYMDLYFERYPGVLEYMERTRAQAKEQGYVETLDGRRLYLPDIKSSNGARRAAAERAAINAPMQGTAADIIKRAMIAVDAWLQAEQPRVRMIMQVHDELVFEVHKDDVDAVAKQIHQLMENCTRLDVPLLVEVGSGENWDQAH

**Q.** With Cc1cn(C2CC(O)C(COP(O)(=[Se])OP(=O)(O)OP(=O)(O)O)O2)c(=O)[nH]c1=O (stereo not drawn) [α-Se-TTP 24] as the molecule, how does the “recognition as a substrate by Klenow” value read?
**A.** Its value is “recognized α-Se-TTP 24 as a substrate”.
